# Laboratory results as given in paper PMC10902181 (Journal of neurochemistry, 2023).
# Where two headings read alike, the source gives them in different places. Marks after values point to notes of the source that are not given here.
# Experiments:
# [1] = molecular target: WT GluN1/GluN2A (Homo sapiens, UniProt Q05586+Q12879); assay: TEVC current recordings from Xenopus oocytes, channel blocker inhibition; type: cell-based; settings: for IC50: IC50, WT GluN1/WT 2A, holding −40 mV; for % inhibition: WT GluN1/WT 2A, 100 μM blocker, −40 mV
# [2] = molecular target: GluN1-G620R/GluN2A (Homo sapiens, UniProt Q05586+Q12879, G620R); assay: as above; type: cell-based; settings: for % inhibition: 1-G620R/2A, 100 μM blocker, −40 mV; for IC50: IC50, 1-G620R/2A, holding −40 mV
# [3] = molecular target: T1, GluN1/GluN2A-L611Q (Homo sapiens, UniProt Q05586+Q12879, L611Q); assay: as above; type: cell-based; settings: for % inhibition: 2A-L611Q, 100 μM blocker, −40 mV; for IC50: IC50, 2A-L611Q, holding −40 mV
# [4] = molecular target: GluN2A-N614S-containing NMDARs (Homo sapiens, UniProt Q05586+Q12879, N614S); assay: as above; type: cell-based; settings: for % inhibition: 2A-N614S, 100 μM blocker, −40 mV; for IC50: IC50, 2A-N614S, holding −40 mV
# [5] = molecular target: GluN2A-N615K-containing NMDARs (Homo sapiens, UniProt Q05586+Q12879, N615K); assay: as above; type: cell-based; settings: for % inhibition: 2A-N615K, 100 μM blocker, −40 mV; for IC50: IC50, 2A-N615K, holding −40 mV
# [6] = molecular target: WT GluN1/GluN2B (Homo sapiens, UniProt Q05586+Q13224); assay: as above; type: cell-based; settings: for IC50: IC50, WT GluN1/WT 2B, holding −40 mV; for % inhibition: WT GluN1/WT 2B, 100 μM blocker, −40 mV
# [7] = molecular target: GluN2B-W607C-containing NMDARs (Homo sapiens, UniProt Q05586+Q13224, W607C); assay: as above; type: cell-based; settings: for % inhibition: 2B-W607C, 100 μM blocker, −40 mV; for IC50: IC50, 2B-W607C, holding −40 mV
# [8] = molecular target: GluN2B-G611V-containing NMDARs (Homo sapiens, UniProt Q05586+Q13224, G611V); assay: as above; type: cell-based; settings: for % inhibition: 2B-G611V, 100 μM blocker, −40 mV; for IC50: IC50, 2B-G611V, holding −40 mV
# [9] = molecular target: GluN1/GluN2B-N615I (Homo sapiens, UniProt Q05586+Q13224, N615I); assay: as above; type: cell-based; settings: for % inhibition: 2B-N615I, 100 μM blocker, −40 mV; for IC50: IC50, 2B-N615I, holding −40 mV
# [10] = molecular target: GluN1/GluN2B-N615K (Homo sapiens, UniProt Q05586+Q13224, N615K); assay: as above; type: cell-based; settings: for % inhibition: 100 μM blocker, −40 mV
# [11] = molecular target: GluN2B-N616K-containing NMDARs (Homo sapiens, UniProt Q05586+Q13224, N616K); assay: as above; type: cell-based; settings: for % inhibition: 2B-N616K, 100 μM blocker, −40 mV; for IC50: IC50, 2B-N616K, holding −40 mV
# [12] = molecular target: GluN2B-V618G-containing NMDARs (Homo sapiens, UniProt Q05586+Q13224, V618G); assay: as above; type: cell-based; settings: for % inhibition: 2B-V618G, 100 μM blocker, −40 mV; for IC50: IC50, 2B-V618G, holding −40 mV
# [13] = molecular target: GluN2B-V620M-containing NMDARs (Homo sapiens, UniProt Q05586+Q13224, V620M); assay: as above; type: cell-based; settings: for % inhibition: 2B-V620M, 100 μM blocker, −40 mV; for IC50: IC50, 2B-V620M, holding −40 mV
# [14] = molecular target: T1, GluN1/GluN2A-L611Q; assay: Current-voltage curves; settings: 2A-L611Q
structure (smiles),measurement,setting,value
CNC1(c2ccccc2Cl)CCCCC1=O (stereo not shown) [ketamine],IC50,[1]; w/ 1 mM Mg^2+,17 µM
same,IC50,[1]; w/o Mg^2+,5.5 µM
same,% inhibition,[1]; w/ 1 mM Mg^2+,79 ± 2.4% (24)
same,% inhibition,[1]; w/o Mg^2+,92 ± 1.1% (25)
same,% inhibition,[2]; w/ 1 mM Mg^2+,97 ± 0.6 (7)^¥ %
same,% inhibition,[2]; w/o Mg^2+,95 ± 1.8 (12) %
same,increased potency in 1 mM Mg^2+ compared to the same variant in the absence of Mg^2+,[2]; GluN1-G620R,2.5 fold
same,enhanced potency in comparison to WT NMDARs,"[2]; GluN1-G620R, absence of Mg^2+",2.2 fold
same,IC50,[2]; w/ 1 mM Mg^2+,1 µM
same,IC50,[2]; w/o Mg^2+,2.5 µM
same,% inhibition,[3]; w/ 1 mM Mg^2+,93 ± 2.1% (10) ^*^¥
same,% inhibition,[3]; w/o Mg^2+,87 ± 1.5% (17)
same,increased potency in 1 mM Mg^2+ compared to the same variant in the absence of Mg^2+,[3]; GluN2A-L611Q,1.8 fold
same,IC50,[3]; w/ 1 mM Mg^2+,4 µM
same,IC50,[3]; w/o Mg^2+,7.2 µM
same,% inhibition,[4]; w/ 1 mM Mg^2+,77 ± 4.1% (9)
same,% inhibition,[4]; w/o Mg^2+,78 ± 3.0% (12)^¥
same,reduced potency (less potent) vs WT,"[4]; GluN2A-N614S, absence of Mg^2+",~ 3 fold
same,IC50,[4]; w/ 1 mM Mg^2+,31 µM
same,IC50,[4]; w/o Mg^2+,29 µM
same,% inhibition,[5]; w/ 1 mM Mg^2+,92 ± 3.3% (7)^¥
same,% inhibition,[5]; w/o Mg^2+,93 ± 1.5% (18)
same,IC50,[5]; w/ 1 mM Mg^2+,1.6 µM
same,IC50,[5]; w/o Mg^2+,4.3 µM
same,increased potency in 1 mM Mg^2+ compared to the same variant in the absence of Mg^2+,[5]; printed GluN2A-N616K,2.7 fold
same,IC50,[6]; w/ 1 mM Mg^2+,14 µM
same,IC50,[6]; w/o Mg^2+,4.2 µM
same,% inhibition,[6]; w/ 1 mM Mg^2+,86 ± 1.0% (12)
same,% inhibition,[6]; w/o Mg^2+,95 ± 1.0% (13)
same,% inhibition,[7]; w/ 1 mM Mg^2+,89 ± 2.8% (9)
same,% inhibition,[7]; w/o Mg^2+,80 ± 3.6% (12)^¥
same,reduced potency (less potent) vs WT,"[7]; GluN2B-W607C, absence of Mg^2+",~ 3 fold
same,IC50,[7]; w/ 1 mM Mg^2+,11 µM
same,IC50,[7]; w/o Mg^2+,16 µM
same,% inhibition,[8]; w/ 1 mM Mg^2+,88 ± 1.6% (16)
same,% inhibition,[8]; w/o Mg^2+,92 ± 2.6% (7)
same,reduced potency in 1 mM Mg^2+ vs absence of Mg^2+,[8]; GluN2B-G611V,2.6 fold
same,IC50,[8]; w/ 1 mM Mg^2+,8 µM
same,IC50,[8]; w/o Mg^2+,3.1 µM
same,% inhibition,[9]; w/ 1 mM Mg^2+,94 ± 1.8% (8)^¥
same,% inhibition,[9]; w/o Mg^2+,89 ± 1.9 (10) %
same,enhanced potency in comparison to WT NMDARs,"[9]; GluN2B-N615I, absence of Mg^2+",8.1 fold
same,IC50,[9]; w/ 1 mM Mg^2+,0.76 µM
same,IC50,[9]; w/o Mg^2+,0.51 µM
same,IC50,[10],> 100 µM
same,% inhibition,"[10]; 2B-N615K, w/ 1 mM Mg^2+",6.5 ± 1.5% (16) ^*^¥
same,% inhibition,"[10]; 2B-N615K, w/o Mg^2+",22 ± 3.8 (15)^¥ %
same,IC50,"[10]; 2B-N615K, w/ 1 mM Mg^2+, holding −40 mV",> 100 µM
same,reduced potency compared to the WT receptors,"[10]; GluN2B-N615K, presence of 1 mM Mg^2+",over 5.9 fold
same,% inhibition,[11]; w/ 1 mM Mg^2+,93 ± 1.3% (13)^¥
same,% inhibition,[11]; w/o Mg^2+,91 ± 2.7% (8)
same,enhanced potency in comparison to WT NMDARs,"[11]; GluN2B-N616K, absence of Mg^2+",1.8 fold
same,IC50,[11]; w/ 1 mM Mg^2+,2.5 µM
same,IC50,[11]; w/o Mg^2+,2.3 µM
same,% inhibition,[12]; w/ 1 mM Mg^2+,81 ± 2.1% (8)
same,% inhibition,[12]; w/o Mg^2+,77 ± 3.0% (8)^¥
same,reduced potency (less potent) vs WT,"[12]; GluN2B-V618G, absence of Mg^2+",~ 3 fold
same,IC50,[12]; w/ 1 mM Mg^2+,24 µM
same,IC50,[12]; w/o Mg^2+,18 µM
same,% inhibition,[13]; w/ 1 mM Mg^2+,91 ± 2.8% (8)
same,% inhibition,[13]; w/o Mg^2+,93 ± 1.0% (10)
same,reduced potency in 1 mM Mg^2+ vs absence of Mg^2+,[13]; GluN2B-V620M,2.1 fold
same,IC50,[13]; w/ 1 mM Mg^2+,7 µM
same,IC50,[13]; w/o Mg^2+,3.4 µM
same,"z δ (apparent, combined block)",[14]; 1 mM Mg^2+ + 0.3 μM ketamine,1.14
same,"z δ (apparent, combined block)",[14]; 1 mM Mg^2+ + 1.0 μM ketamine,1.02
same,"z δ (apparent, combined block)",[14]; 1 mM Mg^2+ + 3.0 μM ketamine,1.01
same,"z δ (apparent, combined block)",[14]; 1 mM Mg^2+ + 10 μM ketamine,0.84
same,"z δ (apparent, combined block)","[14]; 1 mM Mg^2+ + 30 μM ketamine, zδ was fixed to 0.80 for this condition",0.80 ^*
same,"z δ (apparent, combined block)",[14]; 1 mM Mg^2+ + 100 μM ketamine,0.80
